How the values were obtained:
METTL9 [1] = target: T1, METTL9 (Homo sapiens, UniProt Q9H1A3); format: biochemical; settings: mono-methylated product monitored, N = 3
METTL9 [2] = target: T1, METTL9; test: Isothermal titration calorimetry; format: binding
METTL9 mutants = test: ITC of mutant METTL9 titrated with SAH; format: binding, human; settings: METTL9 T173A, T115A and N118A (range over the three mutants)
METTL9 T115A = METTL9 T115A (human, UniProt Q9H1A3 19-318, T115A); test: ITC
METTL9 D213S = METTL9 D213S (human, UniProt Q9H1A3 19-318, D213S); test: ITC
METTL9 D213N = METTL9 D213N (human, UniProt Q9H1A3 19-318, D213N); test: ITC
T115A, V241G, and C297A = test: ITC
D213S or D213N = test: ITC

Sequence of METTL9 D213S (Q9H1A3 19-318 D213S): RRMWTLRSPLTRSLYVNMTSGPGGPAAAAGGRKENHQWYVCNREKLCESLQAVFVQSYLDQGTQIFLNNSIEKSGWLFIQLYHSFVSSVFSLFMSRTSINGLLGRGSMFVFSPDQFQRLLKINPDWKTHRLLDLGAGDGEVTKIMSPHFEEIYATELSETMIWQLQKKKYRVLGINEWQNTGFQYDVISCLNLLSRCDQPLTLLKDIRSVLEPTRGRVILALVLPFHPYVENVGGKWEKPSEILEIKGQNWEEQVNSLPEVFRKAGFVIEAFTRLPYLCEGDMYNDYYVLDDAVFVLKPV
Sequence of METTL9 D213N (Q9H1A3 19-318 D213N): as the sequence (Q9H1A3 19-318 D213S) above, with S195N counted along it
Sequence of METTL9 T115A (Q9H1A3 19-318 T115A): as the sequence (Q9H1A3 19-318 D213S) above, with T97A, S195D counted along it

`O=C(O)CN(CCN(CC(=O)O)CC(=O)O)CC(=O)O` [EDTA, ethylenediaminetetraacetic acid] was tested, and the “effect on METTL9 enzymatic activity towards SLC39A7_55-70 in presence of zinc” value (METTL9 [1]; zinc ions removed by EDTA) was “completely restored”.

With `Nc1ncnc2c1ncn2[C@@H]1O[C@H](CSCC[C@H](N)C(=O)O)[C@@H](O)[C@H]1O` [SAH, S-adenosylhomocysteine] the Kd (METTL9 [2]) was 3.1 µM and the “decrease in SAH binding relative to wild type” value (METTL9 mutants) was 2–10 fold.

Work on `C[S+](CC[C@H](N)C(=O)[O-])C[C@H]1O[C@@H](n2cnc3c(N)ncnc32)[C@H](O)[C@@H]1O` (some centres unmarked) [SAM, S-adenosylmethionine] yielded a Kd (METTL9 [2]) of 1.6 µM.

In the case of `[Cl-].[Cl-].[Zn+2]` [ZnCl2], the “effect on histidine methylation of SLC39A7_55-70 by METTL9” value (METTL9 [1]; 0.5 mM ZnCl2 added) is reported as “substantially inhibited”.

In the case of Ac-HTHESWIHG-NH2 [SLC39A7_66-74], the Kd (METTL9 [2]) is reported as 6.7 µM.

B1: SLC39A7_(66-74) peptide (peptide)
peptide: HTHESIWHG
B1: binds (METTL9 T115A); binds (METTL9 D213S); binds (METTL9 D213N). For the same molecule, the fold reduction of binding against wild-type METTL9 (T115A, V241G, and C297A) was 6 to 10 fold and the fold weakening of binding against wild-type METTL9 (D213S or D213N) was 4 to 6 fold.

Source: PMC10308197 (Cell Insight, 2023)
